Source: the supplement of paper PMC10307832

Assays:
Experiment in all cases: relative viability (nuclei count vs DMSO), 5 days (fraction); higher = more cells survive
NCI-H650 = system: NCI-H650
Method in brief: (§1)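 For relative viability, nuclei counts in treated wells were divided by those in vehicle wells. Lung cancer cell lines had been pin-tool dosed in 1536-well plates the day after seeding and cultured for 5 days, then fixed and stained in one step (final 0.05% Triton X-100, 1% formaldehyde, 1 ug/ml Hoechst) and imaged at 4×. Doses were one drug alone or a fixed anchor-drug dose plus five library-drug doses (not always all listed) in √10 steps, and values are duplicate-plate medians.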

NCI-H2009 = system: NCI-H2009
Method in brief: as §1

A-427 = system: A-427
Method in brief: as §1

UMC-11 = system: UMC-11
Method in brief: as §1

H3255 = system: H3255
Method in brief: as §1

HARA = system: HARA
Method in brief: as §1

NCI-H1915 = system: NCI-H1915
Method in brief: as §1

HCC-366 = system: HCC-366
Method in brief: as §1

NCI-H596 = system: NCI-H596
Method in brief: as §1

PC-3 [JPC-3] = system: PC-3 [JPC-3]
Method in brief: as §1

SK-LU-1 = system: SK-LU-1
Method in brief: as §1

NCI-H2405 = system: NCI-H2405
Method in brief: as §1

NCI-H460 = system: NCI-H460
Method in brief: as §1

NCI-H441 = system: NCI-H441
Method in brief: as §1

NCI-H1623 = system: NCI-H1623
Method in brief: as §1

PC-14 = system: PC-14
Method in brief: as §1

NCI-H2023 = system: NCI-H2023
Method in brief: as §1

NCI-H1437 = system: NCI-H1437
Method in brief: as §1

NCI-H1755 = system: NCI-H1755
Method in brief: as §1

NCI-H1793 = system: NCI-H1793
Method in brief: as §1

HCC-15 = system: HCC-15
Method in brief: as §1

NCI-H1975 = system: NCI-H1975
Method in brief: as §1

NCI-H3122 = system: NCI-H3122
Method in brief: as §1

LXF-289 = system: LXF-289
Method in brief: as §1

In the case of `CCCCCCCCCCCC1=C(O)C(=O)C=C(O)C1=O` [Embelin] + N=C(N)NC(=N)NCCc1ccccc1 [Phenformin] (partner 250 µM), the relative viability (NCI-H650; first compound 0.08 µM) is reported as 0.436, the relative viability (NCI-H650; first compound 0.8 µM) is reported as 0.524 and the relative viability (NCI-H650; first compound 2.53 µM) is reported as 0.312. The relative viability (NCI-H650; first compound 8 µM) was 0.44, the relative viability (NCI-H2009; first compound 0.08 µM) was 0.495 and the relative viability (NCI-H2009; first compound 0.8 µM) was 0.598. The relative viability (NCI-H2009; first compound 2.53 µM) was 0.44, the relative viability (NCI-H2009; first compound 8 µM) was 0.295 and the relative viability (A-427; first compound 0.08 µM) was 0.359. For the same compound, the relative viability (A-427; first compound 0.8 µM) was 0.411, the relative viability (A-427; first compound 2.53 µM) was 0.328 and the relative viability (A-427; first compound 8 µM) was 0.363. It also gave a relative viability (UMC-11; first compound 0.08 µM) of 0.33, a relative viability (UMC-11; first compound 0.8 µM) of 0.339 and a relative viability (UMC-11; first compound 2.53 µM) of 0.323. For the same compound, the relative viability (UMC-11; first compound 8 µM) was 0.314, the relative viability (H3255; first compound 0.08 µM) was 0.374 and the relative viability (H3255; first compound 0.8 µM) was 0.326. It also gave a relative viability (H3255; first compound 2.53 µM) of 0.324, a relative viability (H3255; first compound 8 µM) of 0.362 and a relative viability (HARA; first compound 0.08 µM) of 0.438. It also gave a relative viability (HARA; first compound 0.8 µM) of 0.56, a relative viability (HARA; first compound 2.53 µM) of 0.497 and a relative viability (HARA; first compound 8 µM) of 0.455. For the same compound, the relative viability (NCI-H1915; first compound 0.08 µM) was 0.382, the relative viability (NCI-H1915; first compound 0.8 µM) was 0.382 and the relative viability (NCI-H1915; first compound 2.53 µM) was 0.364. The relative viability (NCI-H1915; first compound 8 µM) was 0.411, the relative viability (HCC-366; first compound 0.08 µM) was 0.646 and the relative viability (HCC-366; first compound 0.8 µM) was 0.638. For the same compound, the relative viability (HCC-366; first compound 2.53 µM) was 0.644, the relative viability (HCC-366; first compound 8 µM) was 0.676 and the relative viability (NCI-H596; first compound 0.08 µM) was 0.743. It also gave a relative viability (NCI-H596; first compound 0.8 µM) of 0.744, a relative viability (NCI-H596; first compound 2.53 µM) of 1.03 and a relative viability (NCI-H596; first compound 8 µM) of 0.582. It also gave a relative viability (PC-3 [JPC-3]; first compound 0.08 µM) of 0.475, a relative viability (PC-3 [JPC-3]; first compound 0.8 µM) of 0.476 and a relative viability (PC-3 [JPC-3]; first compound 2.53 µM) of 0.477. For the same compound, the relative viability (PC-3 [JPC-3]; first compound 8 µM) was 0.477, the relative viability (SK-LU-1; first compound 0.08 µM) was 0.608 and the relative viability (SK-LU-1; first compound 0.8 µM) was 0.624. For the same compound, the relative viability (SK-LU-1; first compound 2.53 µM) was 0.534, the relative viability (SK-LU-1; first compound 8 µM) was 0.365 and the relative viability (NCI-H2405; first compound 0.08 µM) was 0.408. The relative viability (NCI-H2405; first compound 0.8 µM) was 0.445, the relative viability (NCI-H2405; first compound 2.53 µM) was 0.367 and the relative viability (NCI-H2405; first compound 8 µM) was 0.341. It also gave a relative viability (NCI-H460; first compound 0.08 µM) of 0.535, a relative viability (NCI-H460; first compound 0.8 µM) of 0.595 and a relative viability (NCI-H460; first compound 2.53 µM) of 0.66. For the same compound, the relative viability (NCI-H460; first compound 8 µM) was 0.256, the relative viability (NCI-H441; first compound 0.08 µM) was 0.698 and the relative viability (NCI-H441; first compound 0.8 µM) was 0.897. For the same compound, the relative viability (NCI-H441; first compound 2.53 µM) was 0.957, the relative viability (NCI-H441; first compound 8 µM) was 0.982 and the relative viability (NCI-H1623; first compound 0.08 µM) was 0.601. It also gave a relative viability (NCI-H1623; first compound 0.8 µM) of 0.612, a relative viability (NCI-H1623; first compound 2.53 µM) of 0.62 and a relative viability (NCI-H1623; first compound 8 µM) of 0.602. It also gave a relative viability (PC-14; first compound 0.08 µM) of 0.604, a relative viability (PC-14; first compound 0.8 µM) of 0.988 and a relative viability (PC-14; first compound 2.53 µM) of 0.465. It also gave a relative viability (PC-14; first compound 8 µM) of 0.393, a relative viability (NCI-H2023; first compound 0.08 µM) of 0.383 and a relative viability (NCI-H2023; first compound 0.8 µM) of 0.469. It also gave a relative viability (NCI-H2023; first compound 2.53 µM) of 0.418, a relative viability (NCI-H2023; first compound 8 µM) of 0.327 and a relative viability (NCI-H1437; first compound 0.08 µM) of 0.4. The relative viability (NCI-H1437; first compound 0.8 µM) was 0.324, the relative viability (NCI-H1437; first compound 2.53 µM) was 0.298 and the relative viability (NCI-H1437; first compound 8 µM) was 0.243. It also gave a relative viability (NCI-H1755; first compound 0.08 µM) of 0.646, a relative viability (NCI-H1755; first compound 0.8 µM) of 0.656 and a relative viability (NCI-H1755; first compound 2.53 µM) of 0.608. For the same compound, the relative viability (NCI-H1755; first compound 8 µM) was 0.6, the relative viability (NCI-H1793; first compound 0.08 µM) was 0.355 and the relative viability (NCI-H1793; first compound 0.8 µM) was 0.42. The relative viability (NCI-H1793; first compound 2.53 µM) was 0.473, the relative viability (NCI-H1793; first compound 8 µM) was 0.352 and the relative viability (HCC-15; first compound 0.08 µM) was 0.477. The relative viability (HCC-15; first compound 0.8 µM) was 0.504, the relative viability (HCC-15; first compound 2.53 µM) was 0.461 and the relative viability (HCC-15; first compound 8 µM) was 0.438. For the same compound, the relative viability (NCI-H1975; first compound 0.08 µM) was 0.445, the relative viability (NCI-H1975; first compound 0.8 µM) was 0.413 and the relative viability (NCI-H1975; first compound 2.53 µM) was 0.405. For the same compound, the relative viability (NCI-H1975; first compound 8 µM) was 0.384, the relative viability (NCI-H3122; first compound 0.08 µM) was 0.388 and the relative viability (NCI-H3122; first compound 0.8 µM) was 0.415. For the same compound, the relative viability (NCI-H3122; first compound 2.53 µM) was 0.384, the relative viability (NCI-H3122; first compound 8 µM) was 0.282 and the relative viability (LXF-289; first compound 0.08 µM) was 0.509. The relative viability (LXF-289; first compound 0.8 µM) was 0.547, the relative viability (LXF-289; first compound 2.53 µM) was 0.527 and the relative viability (LXF-289; first compound 8 µM) was 0.571.
